Results reported in patent US12173029B2, “Antiviral prodrugs, pharmaceutical formulations, and methods” (priority 2020, dated 2024).
Where two headings read alike, the source gives them in different places.

Columns and labels:
Human Coronavirus 229E [1] = format: cell-based; conditions: HCoV-229E in MRC-5 cells, three days, CPE by MTT
SARS-CoV-2 [2] = experiment: Example 6 SARS-CoV-2 infection assay in Huh7.5 cells (nucleocapsid immunofluorescence); format: cell-based; conditions: SARS CoV-2, Huh7.5 cells, MOI 0.1, 48 hours, percent infected cells
SARS-CoV-2 [3] = experiment: Example 6 SARS-CoV-2 infection assay in TMPRSS2-Vero cells (nucleocapsid immunofluorescence); format: cell-based; conditions: SARS CoV-2, TMPRSS2-Vero cells, MOI 0.01, 32 hours, percent infected cells
VERO E6 cells = experiment: Example 4 generation of remdesivir triphosphate in Vero E6 cells (LC/MS/MS); format: in vitro ADME, monkey
Method: In this example, Vero E6 cells were plated in 6 well plates at about 3.4×10^5 cells per well in 2 mL of media (DMEM, 10% FBS).
Cells were then incubated at 37° C. for 24 hours. Media was then aspirated and replaced with 2 ml of control media (fresh Dulbecco's Modified Eagle's Medium (DMEM), 10% FBS) or 2 mL of media with drug at a concentration of 1 μM. Cell were incubated with the various drugs for 48 hours. The media was aspirated, the cells rinsed twice with phosphate-buffered saline (PBS), trypsinized for 5 minutes with 1 mL ATV, triturated and removed to a 15 mL centrifuge tube, rinsed with 1 mL PBS, which was also then removed to the 15 mL centrifuge tube, and the cells were triturated again. Cells were counted in a Reichert hemocytometer using two 10 μL samples, and the number of cells in each sample was determined.
Cells were centrifuged at 1200 rpm for 10 minutes, diluent aspirated and the pellet resuspended in 250 μL of methanol/distilled water (70/30) and analyzed by LC/MS/MS. The results, which are depicted at FIG. 3, were in picomoles/10^6 cells and are the average of two or three determinations.

[4] = format: in vivo; conditions: Syrian hamsters, sodium salt
Method: ODBG-P-RVn in 0.1M sodium carbonate/bicarbonate buffer, pH 9.0, was administered to Syrian Hamsters by oral gavage every 12 hours for seven days. ODBG-P-RVn was present as the sodium salt.
FIG. 5A and FIG. 5B depict the seven day oral pharmacokinetics in Syrian hamsters. Syrian hamsters were given vehicle or ODBG-P-RVn by oral gavage every 12 hours for 7 days. Groups of 3 animals received vehicle or drug at doses of 16.9 and 13.2 mg/kg. Animals were weighed daily and monitored for clinical signs.
Analytical Methods: ODBG-P-RVn: Hamster plasma samples (10 μL) containing ODBG-P-RVn and K2EDTA as the anticoagulant were added to polypropylene tubes containing water (100 μL), internal standard solution (10 μL; 1,000 ng/mL of ODE-P-RVn in ACN:DMF (1:1, v/v)), and 10 μL of ACN:DMF (1:1, v/v). The solutions were mixed, then acidified with phosphoric acid, 85% w/v:water (1:19, v/v; 10 μL), mixed, then diluted with 200 μL of IPA, mixed, then diluted with 500 μL of water, and mixed. […] The ODBG-P-RVn extracts were analyzed using an Agilent 1200 HPLC system (Agilent, Santa Clara, CA) coupled to an API5500 mass analyzer (SCIEX, Foster City, CA). […]
The solutions were mixed and centrifuged at 16,000 g for five minutes. […] The GS-441524 extracts were analyzed using an Acquity UPLC system (Waters, Milford, MA) coupled to a G2-S QTof mass analyzer (Waters, Milford, MA). […]

[5] = test system: USA WA-01 strain of SARS CoV-2; experiment: Example 2 anti-coronavirus activity in Vero E6 cells (qPCR spike RNA); format: cell-based; conditions: Vero C1008, SARS CoV-2 USA WA-01, Vero E6 cells, MOI 0.1, 48 hours
Method: Ten thousand Vero E6 cells were seeded in 100 microliters of culture medium in 96 well plates. The following day serial two-fold dilutions of antiviral compounds or the DMSO-containing vehicle were added to each well. The USA WA-01 strain of SARS CoV-2 was added to each well at a multiplicity of infection of 0.1 thirty minutes later. Cells were incubated for 48 hours, washed twice in PBS and lysed with TRIzol. RNA was extracted using Directzol micro RNA columns. RNA was made into cDNA and assayed for the SARS CoV-2 spike protein and for a housekeeping gene (RPLPO) RNA by qPCR. Data represents the average of duplicate wells. Cellular cytotoxicity was also measured in VERO E6 cells. […] Cytotoxicity (CC50) was assessed using a commercially available MTT assay.

[6] = test system: SARS-CoV-2 isolate USA-WA1/2020; experiment: Example 3 SARS-CoV-2 infection in Vero E6 cells (qRT-PCR Spike RNA); format: cell-based; conditions: for EC50 / EC90: Severe acute respiratory syndrome coronavirus 2, Vero C1008, SARS-CoV-2 USA-WA1/2020, Vero E6 cells, MOI 0.01, 48 hours, mean±SD
[7] = test system: SARS-CoV-2 isolate USA-WA1/2020; experiment: Example 7 SARS-CoV-2 infection in PSC-human lung cells (qRT-PCR); format: cell-based
[8] = test system: SARS-CoV-2 isolate USA-WA1/2020; experiment: Example 7 SARS-CoV-2 infection in Calu-3 cells (qRT-PCR); format: cell-based; conditions: for EC50 / EC90: Severe acute respiratory syndrome coronavirus 2, SARS-CoV-2, Calu-3 cells, MOI 0.01, 48 hours
[9] = test system: SARS-CoV-2 isolate USA-WA1/2020; experiment: Example 7 SARS-CoV-2 infection in Huh7.5 cells (qRT-PCR); format: cell-based; conditions: for EC50 / EC90: Severe acute respiratory syndrome coronavirus 2, SARS-CoV-2, Huh7.5 cells, MOI 0.01, 48 hours, qRT-PCR, Example 7
[10] = test system: SARS-CoV-2 isolate USA-WA1/2020; experiment: Example 7 SARS-CoV-2 infection in Caco-2 cells (qRT-PCR); format: cell-based
SARS-CoV-2 [11] = experiment: Example 7 SARS-CoV-2 antiviral activity, summary across the five cell types; format: cell-based; conditions: Severe acute respiratory syndrome coronavirus 2; SARS-CoV-2, five cell types of Example 7; read-out: EC50, range across cell types
[12] = Example 7 cytotoxicity, summary across all cell lines; format: cell-based; conditions: monkey, human; five cell types of Example 7, 48 hours
Method: The cytotoxicity of each compound by incubating each of these cell lines with serial dilutions of each compound from 1.23 μM to 100 μM for 48 hours. […] The selectivity index of ODBG-P-RV ranged from 295 to 699 in the five cell types tested in this example).

Human Coronavirus 229E [13] = experiment: Example 8 human coronavirus 229E in MRC-5 cells (CPE, MTT); format: cell-based
Method: Human Coronavirus 229E (ATCC) was propagated and infectious units quantified by TCID50 using MRC-5 cells. For antiviral testing, approximately 10^4 MRC-5 cells were seeded per well in EMEM (10% FCS) at 37 C in a 96 well plate overnight. Medium from each well was removed and cells were infected with 100 TCID50 virus in 100 μL medium for two hours.
Cells were washed one time with medium and then compounds or controls added at the indicated concentrations. After three days, CPE was observed under microscope and quantified using an MTT cell proliferation assay kit (Abcam) read on an ELx800, Universal Microplate reader (BIO-TEK Instruments, INC). The % Inhibition was calculated as (Atv−Acv)/(Acd−Acv)×100% where Atv indicates the absorbance of the test compounds with virus infected cells and A, and Aca indicate the absorbance of the virus control and the absorbance of the cell control, respectively. The average half-maximal effective concentration (EC50) was defined as the concentration which achieved 50% inhibition of virus-induced cytopathic effects.
FIG. 4A and FIG. 4B: ODBG-P-RVn (15d) inhibits the human Alphacoronavirus 229E. […] Cells were infected with 229E for 2 hours followed by treatment with the indicated dose of the indicated drug for 72 hours. The relative CPE was determined by measuring cell viability using an MTT assay.

[14] = Example 8 cytotoxicity in MRC-5 cells (CellTiter-Glo); format: cell-based; conditions: human
Method: FIG. 4B depicts the cytotoxicity in MRC-5 cells incubated in the presence of the indicated drug at the indicated concentration for 72 hours, after which cell viability was measured by the CellTiter-Glo assay. Data points indicate the averages from 3 independent experiments performed in duplicate. Error bars represent the standard error mean (SEM).

[15] = after intravenous infusion; cited from earlier work
[16] = Example 7 cell viability assay (CellTiter-Glo) in Huh7.5 cells; conditions: human
[17] = Example 7 cell viability assay (CellTiter-Glo) in Vero E6 cells; conditions: monkey
[18] = Example 7 cell viability assay (CellTiter-Glo) in PSC-human lung cells
[19] = test system: SARS-CoV-2 isolate USA-WA1/2020; experiment: Example 7 SARS-CoV-2 infection in Vero E6 cells (qRT-PCR); format: cell-based; conditions: Severe acute respiratory syndrome coronavirus 2, Vero C1008, SARS-CoV-2, Vero E6 cells, MOI 0.01, 48 hours
[20] = Example 2 cellular cytotoxicity in Vero E6 cells (MTT); conditions: monkey
[21] = Severe acute respiratory syndrome coronavirus 2, SARS-CoV-2, PSC-human lung cells, MOI 0.01, 48 hours
[22] = Severe acute respiratory syndrome coronavirus 2, SARS-CoV-2, Caco-2 cells, MOI 0.01, 48 hours

1-O-octadecyl-2-O-benzyl-sn-glycerol-benzyl-phospho-RVn [Compound 16]
EC50 (Human Coronavirus 229E [1]): 1500 ± 930 nM
EC90 (Human Coronavirus 229E [1]): 4270 ± 880 nM
EC50 (SARS-CoV-2 [2]): 3540 ± 583 nM
EC90 (SARS-CoV-2 [2]): 16400 ± 5980 nM
EC50 (SARS-CoV-2 [3]): 7440 ± 818 nM
EC90 (SARS-CoV-2 [3]): 15300 ± 5910 nM

CCCCCCCCCCCCCCCCCCOC[C@H](COP(=O)(O)OC[C@H]1O[C@@](C#N)(c2ccc3c(N)ncnn23)[C@H](O)[C@@H]1O)OCc1ccccc1 [Compound 15d, 1-O-octadecyl-2-O-benzyl-glyceryl-sn-3-phospho-RVn]
synthesis of remdesivir triphosphate (RVn-TP) (VERO E6 cells; exposure to 1 micromolar drug, up to 48 hours): increased progressively to 48 hours
tolerability / clinical signs ([4]; oral gavage every 12 hours for seven days, 16.9 and 13.2 mg/kg): well tolerated, and no adverse clinical signs were noted
time for plasma levels to fall by 50% ([4]; oral gavage): about 5 hours

CCC(CC)COC(=O)[C@H](C)N[P@](=O)(OC[C@H]1O[C@@](C#N)(c2ccc3c(N)ncnn23)[C@H](O)[C@@H]1O)Oc1ccccc1 [RDV, Remdesivir]
EC50 [5]: 3160 nM
EC90 [5]: 5500 nM
EC50 [6]: 4600 nM
EC90 [6]: 8900 ± 4900 nM
levels of RVn-TP (VERO E6 cells; 1 μM drug, at 8 and 24 hours): below the level of quantification
EC50 [7, 21]: 140 nM
EC90 [7, 21]: 230 nM
EC50 [8]: 230 nM
EC90 [8]: 310 nM
EC50 [9]: 60 nM
EC90 [9]: 120 nM
EC50 [10, 22]: 170 nM
EC90 [10, 22]: 280 nM
EC50 (SARS-CoV-2 [11]): 60 to 1130 nM
CC50 at 48 h [12]: ≥ 15200 nM
EC50 (Human Coronavirus 229E [13]; MRC5, 229E in MRC-5 cells, 72 hours, CPE by MTT, Example 8): 40 nM
EC90 (Human Coronavirus 229E [13]; MRC5, 72 h): 260 nM
CC50 at 72 h [14]: > 50000 nM
persistence in plasma at virologically significant levels [15]: less than 2 hours
CC50 at 48.5 h [16]: 15200 nM
CC50 at 48.5 h [17]: 101000 nM
CC50 at 48.5 h [18]: 32700 nM

N#C[C@@]1(c2ccc3c(N)ncnn23)O[C@H](CO)[C@@H](O)[C@H]1O [RVn, 2-C-(4-aminopyrrolo[2,1-f][1,2,4]triazin-7-yl)-2,5-anhydro-D-altrononitrile]
EC50 [5]: 1560 nM
EC90 [5]: 2690 nM
Selectivity ([6]; Selectivity index, CC50/EC50, Vero E6 cells, Example 3): >58.8
EC50 [6]: 1700 nM
EC90 [6]: 3200 ± 770 nM
EC50 [19]: 380 nM
EC90 [19]: 770 nM
Selectivity ([7]; Selectivity index CC50/EC50, PSC-human lung cells): >135
EC50 [7, 21]: 740 nM
Selectivity ([8]; Selectivity index CC50/EC50, Calu-3 cells): >666
EC50 [8]: 150 nM
EC90 [8]: 180 nM
Selectivity ([9]; Selectivity index CC50/EC50, Huh7.5 cells): >312
EC50 [9]: 320 nM
EC90 [9]: 730 nM
Selectivity ([10]; Selectivity index CC50/EC50, Caco-2 cells): >104
EC50 [10, 22]: 960 nM
CC50 [20]: > 50000 nM
